In ChEMBL document CHEMBL5528027, “Target identification, and optimization of dioxygenated amide derivatives as potent antibacterial agents with FabH inhibitory activity” (Eur J Med Chem, 2024):
Values after ≈ are worked out from the molar mass of the structure shown.

Tests used:
[1] = system: Streptococcus pneumoniae; assay: Antibacterial activity against Streptococcus pneumoniae assessed as reduction in bacterial growth measured after 24 hrs by two-fold serial dilution method; type: functional
[2] = system: Bacillus subtilis; assay: Antibacterial activity against Bacillus subtilis assessed as reduction in bacterial growth measured after 24 hrs by two-fold serial dilution method; type: functional
[3] = system: Staphylococcus aureus; assay: Antibacterial activity against Staphylococcus aureus assessed as reduction in bacterial growth measured after 24 hrs by two-fold serial dilution method; type: functional
[4] = system: Escherichia coli; assay: Antibacterial activity against Escherichia coli assessed as reduction in bacterial growth measured after 24 hrs by two-fold serial dilution method; type: functional
[5] = system: Pseudomonas aeruginosa; assay: Antibacterial activity against Pseudomonas aeruginosa assessed as reduction in bacterial growth measured after 24 hrs by two-fold serial dilution method; type: functional
[6] = system: Klebsiella pneumoniae; assay: Antibacterial activity against Klebsiella pneumoniae assessed as reduction in bacterial growth measured after 24 hrs by two-fold serial dilution method; type: functional
[7] = Cytotoxicity against mouse NIH3T3 cells incubated for 24 hrs by MTT analysis; type: toxicity, cell-based
[8] = target: T1, Beta-ketoacyl-[acyl-carrier-protein] synthase III (Escherichia coli K-12, UniProt P0A6R0); assay: Inhibition of Escherichia coli FabH
T1 sequence (P0A6R0 whole entry): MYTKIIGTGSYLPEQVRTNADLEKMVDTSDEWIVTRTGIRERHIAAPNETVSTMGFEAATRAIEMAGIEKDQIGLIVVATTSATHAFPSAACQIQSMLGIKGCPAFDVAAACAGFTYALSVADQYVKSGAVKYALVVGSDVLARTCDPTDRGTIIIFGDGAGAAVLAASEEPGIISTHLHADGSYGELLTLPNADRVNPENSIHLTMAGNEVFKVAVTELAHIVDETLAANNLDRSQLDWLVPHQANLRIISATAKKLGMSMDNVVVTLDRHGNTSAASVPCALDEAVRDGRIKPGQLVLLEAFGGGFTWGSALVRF

[9] = system: Erythrocyte; assay: Hemolytic activity in human erythrocytes assessed as hemolysis by spectrophotometric analysis; type: toxicity, cell-based

SMILES	MIC [1] [µg/mL]	MIC [2] [µg/mL]	MIC [3] [µg/mL]	MIC [4] [µg/mL]	MIC [5] [µg/mL]	MIC [6] [µg/mL]	IC50 at 24 h [7] [µM]	IC50 [8] [µM]	HC30 [9] [µg/mL]
O=C(Nc1ccc2ccccc2n1)c1ccc2c(c1)OCCCO2	25 (≈ 78 µM)	25 (≈ 78 µM)	25 (≈ 78 µM)	25 (≈ 78 µM)	25 (≈ 78 µM)	50 (≈ 156 µM)	–	–	–
O=C(Nc1ccc2cc[nH]c2c1)c1ccc2c(c1)OCCCO2	12.5 (≈ 40.5 µM)	12.5 (≈ 40.5 µM)	6.25 (≈ 20.3 µM)	3.13 (≈ 10.2 µM)	6.25 (≈ 20.3 µM)	3.13 (≈ 10.2 µM)	198	13.1	> 10
COC(=O)c1cccc(-c2ccc(NC(=O)c3ccc4c(c3)OCCCO4)cc2)c1	> 100	50 (≈ 124 µM)	50 (≈ 124 µM)	12.5 (≈ 31 µM)	50 (≈ 124 µM)	50 (≈ 124 µM)	161	19.6	> 10
CC1(CCCNC(=O)c2ccc3c(c2)OCCCO3)N=N1	–	25 (≈ 86.4 µM)	25 (≈ 86.4 µM)	12.5 (≈ 43.2 µM)	25 (≈ 86.4 µM)	–	–	–	–
COc1cc(NC(=O)c2ccc3c(c2)OCCCO3)c2ncccc2c1	> 100	> 100	50 (≈ 143 µM)	50 (≈ 143 µM)	50 (≈ 143 µM)	50 (≈ 143 µM)	–	–	–
CCOC(=O)c1c(NC(=O)c2ccc3c(c2)OCCCO3)sc2c1CCCC2	50 (≈ 125 µM)	50 (≈ 125 µM)	> 100	> 100	50 (≈ 125 µM)	50 (≈ 125 µM)	–	–	–
O=C(c1ccc2c(c1)OCCCO2)N1CCCC1	> 100	> 100	> 100	> 100	50 (≈ 202 µM)	> 100	–	–	–
CCN1CCN(C(=O)c2ccc3c(c2)OCCCO3)CC1	50 (≈ 172 µM)	> 100	25 (≈ 86.1 µM)	25 (≈ 86.1 µM)	50 (≈ 172 µM)	50 (≈ 172 µM)	–	–	–
C#CCCC1(CCNC(=O)c2ccc3c(c2)OCCCO3)N=N1	–	6.25 (≈ 19.9 µM)	6.25 (≈ 19.9 µM)	6.25 (≈ 19.9 µM)	6.25 (≈ 19.9 µM)	–	–	–	–
Cc1ccc2cccc(NC(=O)c3ccc4c(c3)OCCCO4)c2n1	25 (≈ 74.8 µM)	25 (≈ 74.8 µM)	12.5 (≈ 37.4 µM)	12.5 (≈ 37.4 µM)	12.5 (≈ 37.4 µM)	50 (≈ 150 µM)	–	–	–
O=C(Nc1cc(Cl)cc2cccnc12)c1ccc2c(c1)OCCCO2	12.5 (≈ 35.2 µM)	12.5 (≈ 35.2 µM)	3.13 (≈ 8.82 µM)	1.56 (≈ 4.4 µM)	1.56 (≈ 4.4 µM)	3.13 (≈ 8.82 µM)	115	4.9	> 10
NC[C@H]1O[C@H](O[C@H]2[C@H](O)[C@@H](O[C@H]3O[C@H](CO)[C@@H](O)[C@H](N)[C@H]3O)[C@H](N)C[C@@H]2N)[C@H](N)[C@@H](O)[C@@H]1O [BEKANAMYCIN]	50 (≈ 103 µM)	1.56 (≈ 3.23 µM)	1.56 (≈ 3.23 µM)	3.13 (≈ 6.47 µM)	3.13 (≈ 6.47 µM)	3.13 (≈ 6.47 µM)	–	–	–
COc1ccc2[nH]cc(CNC(=O)c3ccc4c(c3)OCCCO4)c2c1	> 100	25 (≈ 70.9 µM)	50 (≈ 142 µM)	25 (≈ 70.9 µM)	50 (≈ 142 µM)	50 (≈ 142 µM)	–	–	–
COc1ccc(NC(=O)c2ccc3c(c2)OCCCO3)c2ncccc12	50 (≈ 143 µM)	> 100	> 100	> 100	50 (≈ 143 µM)	> 100	–	–	–
CC(=O)c1cccnc1NC(=O)c1ccc2c(c1)OCCCO2	> 100	50 (≈ 160 µM)	50 (≈ 160 µM)	6.25 (≈ 20 µM)	> 100	25 (≈ 80 µM)	128	46.4	> 10
O=C(c1ccc2c(c1)OCCCO2)N1CCN(C(=O)c2ccc3c(c2)OCCCO3)CC1	> 100	50 (≈ 114 µM)	> 100	> 100	> 100	> 100	–	–	–

SMILES	MIC [1] [µg/mL]	MIC [2] [µg/mL]	MIC [3] [µg/mL]	MIC [4] [µg/mL]	MIC [5] [µg/mL]	MIC [6] [µg/mL]	IC50 at 24 h [7] [µM]	IC50 [8] [µM]	HC30 [9] [µg/mL]
O=C(Nc1cccnc1)c1ccc2c(c1)OCCCO2	50 (≈ 185 µM)	> 100	50 (≈ 185 µM)	25 (≈ 92.5 µM)	50 (≈ 185 µM)	25 (≈ 92.5 µM)	–	–	–
O=C(c1ccc2c(c1)OCCCO2)N1CCCCC1	25 (≈ 95.7 µM)	12.5 (≈ 47.8 µM)	25 (≈ 95.7 µM)	25 (≈ 95.7 µM)	25 (≈ 95.7 µM)	25 (≈ 95.7 µM)	–	–	–
O=C(Nc1cncc(Cl)n1)c1ccc2c(c1)OCCCO2	50 (≈ 164 µM)	25 (≈ 81.8 µM)	25 (≈ 81.8 µM)	25 (≈ 81.8 µM)	25 (≈ 81.8 µM)	25 (≈ 81.8 µM)	–	–	–
O=C(c1ccc2c(c1)OCCCO2)N1CCN(Cc2ccccc2)CC1	25 (≈ 70.9 µM)	> 100	50 (≈ 142 µM)	50 (≈ 142 µM)	50 (≈ 142 µM)	25 (≈ 70.9 µM)	–	–	–
O=C(Nc1ccncn1)c1ccc2c(c1)OCCCO2	50 (≈ 184 µM)	> 100	50 (≈ 184 µM)	50 (≈ 184 µM)	50 (≈ 184 µM)	> 100	–	–	–
O=C(Nc1cccc2ncccc12)c1ccc2c(c1)OCCCO2	25 (≈ 78 µM)	50 (≈ 156 µM)	50 (≈ 156 µM)	50 (≈ 156 µM)	25 (≈ 78 µM)	25 (≈ 78 µM)	–	–	–
O=C(Nc1nccc2ccccc12)c1ccc2c(c1)OCCCO2	> 100	> 100	50 (≈ 156 µM)	50 (≈ 156 µM)	50 (≈ 156 µM)	25 (≈ 78 µM)	–	–	–
O=C(Nc1ccccn1)c1ccc2c(c1)OCCCO2	> 100	25 (≈ 92.5 µM)	50 (≈ 185 µM)	12.5 (≈ 46.2 µM)	50 (≈ 185 µM)	50 (≈ 185 µM)	–	–	–
O=C(c1ccc2c(c1)OCCCO2)N1CCOCC1	50 (≈ 190 µM)	25 (≈ 95 µM)	12.5 (≈ 47.5 µM)	25 (≈ 95 µM)	25 (≈ 95 µM)	12.5 (≈ 47.5 µM)	–	–	–
CC1(CCNC(=O)c2ccc3c(c2)OCCCO3)N=N1	–	12.5 (≈ 45.4 µM)	6.25 (≈ 22.7 µM)	6.25 (≈ 22.7 µM)	6.25 (≈ 22.7 µM)	–	–	–	–
O=C(Nc1cccc2cccnc12)c1ccc2c(c1)OCCCO2	25 (≈ 78 µM)	12.5 (≈ 39 µM)	25 (≈ 78 µM)	12.5 (≈ 39 µM)	25 (≈ 78 µM)	50 (≈ 156 µM)	–	–	–
O=C(Nc1ccnc2ccccc12)c1ccc2c(c1)OCCCO2	50 (≈ 156 µM)	50 (≈ 156 µM)	25 (≈ 78 µM)	50 (≈ 156 µM)	50 (≈ 156 µM)	50 (≈ 156 µM)	–	–	–
O=C(c1ccc2c(c1)OCCCO2)N1CCN(CCO)CC1	25 (≈ 81.6 µM)	> 100	25 (≈ 81.6 µM)	50 (≈ 163 µM)	25 (≈ 81.6 µM)	> 100	–	–	–
O=C(NCCc1nc2ccccc2[nH]1)c1ccc2c(c1)OCCCO2	50 (≈ 148 µM)	25 (≈ 74.1 µM)	> 100	25 (≈ 74.1 µM)	50 (≈ 148 µM)	> 100	–	–	–
Cc1ccc(NC(=O)c2ccc3c(c2)OCCCO3)cn1	> 100	> 100	50 (≈ 176 µM)	25 (≈ 87.9 µM)	50 (≈ 176 µM)	> 100	–	–	–
